In this test the test system is MCF-7 cells. Nature of the test: 3H-thymidine incorporation cell growth assay, MCF-7. It is filed as cell-based, Human. For orientation: Uptake of a labelled nucleoside into DNA is a usual measure of proliferation.
The mark [1] stands for this setting: daunorubicin bound to metal-transferrin by glutaraldehyde, read-out: IC50 of Drugs bound by a Glutaraldehyde Reaction to the Surface of Transferrin (M): Daunorubicin.
The mark [2] stands for this setting: metal-transferrin without drug, read-out: IC50 of Drugs bound by a Glutaraldehyde Reaction to the Surface of Transferrin (M): No Drug.

Where two headings read alike, the source gives them in different places.

Method: Human cancer cell lines were obtained from the American Type Culture Collection (Rockville, Md.); the NCI/Adr-Res cell line came from the National Cancer Institute (Bethesda, Md.). The cancer cell lines were maintained in alpha-MEM supplemented with 10% fetal calf serum, 1 mM glutamine and 0.05 mg/mL gentamicin (Life Technologies, Inc., Frederick, Md.) in 5% CO2 at 37° C. Cells were removed from cell culture flask or plate by trypsin-EDTA (0.05% trypsin and 0.53 mM EDTA) digestion.
Cell growth was measured with a ^3[H]-thymidine incorporation assay. Cancer cells were plated into each well of a 96-well cell culture plate as noted in Table 2 (e.g., MCF-7 cells were plated at 3000 cells/well) and incubated overnight. Culture media was replaced with media containing increasing concentrations of transferrin based drugs, and the cells were incubated with these drugs for 3 days. Then, ^3[H]-thymidine (0.1 uCi/well) was added to each well for the last 16 hours of incubation. The cells were removed from the plate by trypsin-EDTA digestion and harvested onto a glass-fiber filter (Skatron basic96 Harvester, Shatron Inc., Sterling, Va.). The radioactivity incorporated into the cellular DNA was determined by liquid scintillation counting (LS 6500, Beckman Co., Fullerton, Calif.). Cell proliferation was quantitated by ^3[H]-thymidine incorporation and expressed as a percentage of the untreated control. The experiments were repeated a minimum of three times independently.

For orientation: IC50 means the concentration at which inhibition is half-maximal. Consider “In-tf Daunorubicin: Daunorubicin bound by a glutaraldehyde reaction to the surface of indium-transferrin”, for which the IC50 under setting [1] was 2.7e-08 M.
Regarding In-tf: Indium-transferrin, no drug, under setting [2], the IC50 was determined as 2.7e-06 M.
Regarding “Ga-tf Daunorubicin: Daunorubicin bound by a glutaraldehyde reaction to the surface of gallium-transferrin”, the IC50 under setting [1] worked out at 3.6e-07 M.
Same read-out and setting: under “Fe-tf Daunorubicin: Daunorubicin bound by a glutaraldehyde reaction to the surface of iron-transferrin” stands 2.2e-07 M.
“Ga-tf: Human transferrin loaded with gallium, no drug”: the 50% inhibitory concentration (IC50) under setting [2] worked out at 3.4e-06 M.

These data come from US9333189B2, “Taxane- and taxoid-protein compositions” (ONCBIOMUNE, INC., priority 2010, dated 2016).
